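Exposure lasted 48 hours, with cells grown in 96-well plates and compounds tested at five concentrations. Here, GI50 denotes the concentration required for 50% inhibition of growth.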 Calls of active or inactive are those of the source. Rule as the data show it: active = GI50 up to about 1.1 µM and inactive = higher.
Assays:
Assay in all cases: DTP human tumour cell line panel, 48 h
NCI-H522 = test system: NCI-H522
OVCAR-5 = test system: OVCAR-5
A498 = test system: A498
DU-145 = test system: DU-145
SK-MEL-28 = test system: SK-MEL-28
Malme-3M = test system: Malme-3M
K562 = test system: K562
SK-MEL-2 = test system: SK-MEL-2
SK-MEL-5 = test system: SK-MEL-5
PC-3 = test system: PC-3
OVCAR-8 = test system: OVCAR-8
MDA-MB-435 = test system: MDA-MB-435
SN12C = test system: SN12C
UACC-62 = test system: UACC-62
OVCAR-4 = test system: OVCAR-4
SR = test system: SR
NCI/ADR-RES = test system: NCI/ADR-RES
A549 = test system: A549
786-0 = test system: 786-0
COLO 205 = test system: COLO 205
SF-268 = test system: SF-268
HCC 2998 = test system: HCC 2998
OVCAR-3 = test system: OVCAR-3
MDA-N = test system: MDA-N
Hs-578T = test system: Hs-578T
NCI-H226 = test system: NCI-H226
SF-539 = test system: SF-539
NCI-H460 = test system: NCI-H460
CAKI-1 = test system: CAKI-1
ACHN = test system: ACHN
MDA-MB-231 = test system: MDA-MB-231
HOP-92 = test system: HOP-92
RXF 393 = test system: RXF 393
HOP-62 = test system: HOP-62
UO-31 = test system: UO-31
BT-549 = test system: BT-549
HL-60 = test system: HL-60
M14 = test system: M14
SF-295 = test system: SF-295
SNB-75 = test system: SNB-75
HCT-15 = test system: HCT-15
SW-620 = test system: SW-620
SNB-19 = test system: SNB-19
HT-29 = test system: HT-29
SK-OV-3 = test system: SK-OV-3
TK-10 = test system: TK-10
HCT-116 = test system: HCT-116
U-251 = test system: U-251
IGROV-1 = test system: IGROV-1
CCRF-CEM = test system: CCRF-CEM
NCI-H23 = test system: NCI-H23
UACC-257 = test system: UACC-257
LOX IMVI = test system: LOX IMVI
EKVX = test system: EKVX
MCF7 = test system: MCF7
MOLT-4 = test system: MOLT-4
KM12 = test system: KM12

Structure (SMILES): CC1=NC(=O)CNN1C1=NNC2(C(=O)N1)c1ccccc1-c1ccccc12
- GI50 (NCI-H522): > 100 µM (inactive)
- GI50 (OVCAR-5): > 100 µM (inactive)
- GI50 (A498): > 100 µM (inactive)
- GI50 (DU-145): > 100 µM (inactive)
- GI50 (SK-MEL-28): > 100 µM (inactive)
- GI50 (Malme-3M): > 100 µM (inactive)
- GI50 (K562): > 100 µM (inactive)
- GI50 (SK-MEL-2): > 100 µM (inactive)
- GI50 (SK-MEL-5): > 100 µM (inactive)
- GI50 (PC-3): > 100 µM (inactive)
- GI50 (OVCAR-8): > 100 µM (inactive)
- GI50 (MDA-MB-435): > 100 µM (inactive)
- GI50 (SN12C): > 100 µM (inactive)
- GI50 (UACC-62): > 100 µM (inactive)
- GI50 (OVCAR-4): > 100 µM (inactive)
- GI50 (SR): 55 µM (inactive)
- GI50 (NCI/ADR-RES): > 100 µM (inactive)
- GI50 (A549): > 100 µM (inactive)
- GI50 (786-0): > 100 µM (inactive)
- GI50 (COLO 205): > 100 µM (inactive)
- GI50 (SF-268): > 100 µM (inactive)
- GI50 (HCC 2998): > 100 µM (inactive)
- GI50 (OVCAR-3): > 100 µM (inactive)
- GI50 (MDA-N): > 100 µM (inactive)
- GI50 (Hs-578T): 23.5 µM (inactive)
- GI50 (NCI-H226): > 100 µM (inactive)
- GI50 (SF-539): > 100 µM (inactive)
- GI50 (NCI-H460): > 100 µM (inactive)
- GI50 (CAKI-1): > 100 µM (inactive)
- GI50 (ACHN): > 100 µM (inactive)
- GI50 (MDA-MB-231): > 100 µM (inactive)
- GI50 (HOP-92): > 100 µM (inactive)
- GI50 (RXF 393): > 100 µM (inactive)
- GI50 (HOP-62): > 100 µM (inactive)
- GI50 (UO-31): > 100 µM (inactive)
- GI50 (BT-549): > 100 µM (inactive)
- GI50 (HL-60): > 100 µM (inactive)
- GI50 (M14): > 100 µM (inactive)
- GI50 (SF-295): > 100 µM (inactive)
- GI50 (SNB-75): > 100 µM (inactive)
- GI50 (HCT-15): > 100 µM
- GI50 (SW-620): > 100 µM (inactive)
- GI50 (SNB-19): > 100 µM (inactive)
- GI50 (HT-29): > 100 µM (inactive)
- GI50 (SK-OV-3): > 100 µM (inactive)
- GI50 (TK-10): > 100 µM (inactive)
- GI50 (HCT-116): > 100 µM (inactive)
- GI50 (U-251): > 100 µM (inactive)
- GI50 (IGROV-1): > 100 µM (inactive)
- GI50 (CCRF-CEM): > 100 µM (inactive)
- GI50 (NCI-H23): > 100 µM (inactive)
- GI50 (UACC-257): > 100 µM (inactive)
- GI50 (LOX IMVI): > 100 µM (inactive)
- GI50 (EKVX): > 100 µM (inactive)
- GI50 (MCF7): > 100 µM (inactive)

Structure (SMILES): O=C1Nc2c(Cl)cc(Cl)cc2/C1=N/NC(=O)c1ccccc1O
- GI50 (OVCAR-5): 18.3 µM (inactive)
- GI50 (A498): 16.5 µM (inactive)
- GI50 (MOLT-4): 10 µM (inactive)
- GI50 (KM12): 15.5 µM (inactive)
- GI50 (SK-MEL-28): 15.5 µM (inactive)
- GI50 (Malme-3M): 13.6 µM (inactive)
- GI50 (SK-MEL-2): 12.7 µM (inactive)
- GI50 (SK-MEL-5): 14.8 µM (inactive)
- GI50 (PC-3): 14.8 µM (inactive)
- GI50 (OVCAR-8): 12.3 µM (inactive)
- GI50 (MDA-MB-435): 13.2 µM (inactive)
- GI50 (SN12C): 16.7 µM (inactive)
- GI50 (UACC-62): 12.1 µM (inactive)
- GI50 (OVCAR-4): 13.4 µM (inactive)
- GI50 (SR): 5.4 µM (inactive)
- GI50 (NCI/ADR-RES): 11.5 µM (inactive)
- GI50 (A549): 13.2 µM (inactive)
- GI50 (786-0): 12.8 µM (inactive)
- GI50 (COLO 205): 22.3 µM (inactive)
- GI50 (HCC 2998): 16.7 µM (inactive)
- GI50 (OVCAR-3): 11.2 µM (inactive)
- GI50 (MDA-N): 14.4 µM (inactive)
- GI50 (Hs-578T): 14.8 µM (inactive)
- GI50 (NCI-H226): 14.8 µM (inactive)
- GI50 (SF-539): 14.6 µM (inactive)
- GI50 (NCI-H460): 13.5 µM (inactive)
- GI50 (CAKI-1): 16.8 µM (inactive)
- GI50 (ACHN): 12.8 µM (inactive)
- GI50 (MDA-MB-231): 15.6 µM (inactive)
- GI50 (HOP-92): 15 µM (inactive)
- GI50 (RXF 393): 12.2 µM (inactive)
- GI50 (HOP-62): 15.4 µM (inactive)
- GI50 (UO-31): 11.9 µM (inactive)
- GI50 (BT-549): 14.5 µM (inactive)
- GI50 (HL-60): 15.1 µM (inactive)
- GI50 (M14): 16.1 µM (inactive)
- GI50 (SF-295): 14.9 µM (inactive)
- GI50 (SNB-75): 9.77 µM (inactive)
- GI50 (HCT-15): 14.8 µM
- GI50 (SW-620): 16.9 µM (inactive)
- GI50 (SNB-19): 14.4 µM (inactive)
- GI50 (HT-29): 18.7 µM (inactive)
- GI50 (SK-OV-3): 16.8 µM (inactive)
- GI50 (TK-10): 15.2 µM (inactive)
- GI50 (HCT-116): 13.6 µM (inactive)
- GI50 (U-251): 8.51 µM (inactive)
- GI50 (IGROV-1): 12.3 µM (inactive)
- GI50 (CCRF-CEM): 11.2 µM (inactive)
- GI50 (NCI-H23): 18.2 µM (inactive)
- GI50 (UACC-257): 17.9 µM (inactive)
- GI50 (LOX IMVI): 12.9 µM (inactive)
- GI50 (EKVX): 13.2 µM (inactive)
- GI50 (MCF7): 19.1 µM (inactive)
